Source: patent publication US20200261391A1, “METHODS OF REDUCING THE RISK OF A CARDIOVASCULAR EVENT IN A STATIN-TREATED SUBJECT BY INCREASING SERUM AND PLASMA EPA AND DPA LEVELS” (Amarin Pharmaceuticals Ireland Limited, priority 2019, published 2020)

Test system: patients with elevated triglyceride levels on statin therapy
Test: REDUCE-IT trial: safety (treatment-emergent adverse events, bleeding, atrial fibrillation/flutter)
[1] = TEAE by preferred term, Safety population, N = 4089
[2] = gastrointestinal TEAEs, Safety population, N = 4089
[3] = serious bleeding TEAE by preferred term, N = 4089
[4] = serious bleeding TEAE, Safety population, N = 4089

Description: Specification of Variables and Procedures: Safety assessments included adverse events, clinical laboratory measurements (chemistry, hematology), 12-lead ECGs, vital signs (systolic and diastolic blood pressure, heart rate, respiratory rate, and body temperature), weight, waist circumference, and physical examinations as per Study Procedures in Table 1. […] All laboratory test results were evaluated by the investigator as to their clinical significance. Any observations at physical examinations or laboratory values considered by the investigator to be clinically significant were considered an adverse event.
An adverse event can therefore be any unfavorable and/or unintended sign (including an abnormal laboratory finding), symptom, or disease temporally associated with the use of an investigational medication product, whether or not related to the investigational medication product. All adverse events, including observed or volunteered problems, complaints, or symptoms, were recorded on the appropriate CRF. Each adverse event was evaluated for duration, intensity, and causal relationship with the study medication or other factors.
Serious Adverse Events: A serious adverse event (SAE) is defined as an adverse event that meets any of the following criteria: • Results in death; • Is life-threatening—The term “life-threatening” in the definition of “serious” refers to an event in which the patient was at risk of death at the time of the event. […] Important medical events that may not result in death, be life threatening, or require hospitalization were considered an SAE when, based upon appropriate medical judgment, they may have jeopardized the patient and may have required medical or surgical intervention to prevent one of the outcomes listed above.
Adverse Events of Special Interest: Bleeding-related adverse events, glucose control (fasting blood glucose and HbA1c), and indicators of hepatic disorders (e.g., ALT or AST increases >3×ULN, total bilirubin increases of ≥2×ULN) were summarized separately and compared between treatment groups.
Analysis of Safety: All analyses of safety were conducted on the safety population, which was defined as all randomized patients. The safety assessment was based on the frequency of adverse events, physical exams, vital signs and safety laboratory tests. AEs with new onset during the study between the initiation of study drug and 30 days after the last dose of study drug for each patient was considered treatment-emergent (TEAEs). This included any AE with onset prior to initiation of study drug and increased severity after the treatment initiation.
This included overall incidence rates (regardless of severity and relationship to study drug), and incidence rates for moderate or severe adverse events. A summary of SAEs and adverse events leading to early discontinuation (for ≥30 days) were presented through data listings. Patients who restarted study drug were included in the summary of AEs leading to discontinuation. Safety laboratory tests and vital signs were summarized by post-treatment change from baseline for each of the parameters using descriptive statistics by treatment group. Those patients with significant laboratory abnormalities were identified in data listings. Additional safety parameters were summarized in data listings.

SMILES: CC/C=C\C/C=C\C/C=C\C/C=C\C/C=C\CCCC(=O)OCC [icosapent ethyl, eicosapentaenoic acid ethyl ester]
- Pneumonia, number of patients with serious treatment-emergent adverse event (N = 4089): 105
- Pneumonia, patients with serious treatment-emergent adverse event (N = 4089): 2.6%
- Serious TEAE Leading to Death, % of patients (Safety population, N = 4089): (2.3%)
- Serious TEAE Leading to Death, number of patients (Safety population, N = 4089): 94
- Serious TEAE Leading to Withdrawal of Study Drug, % of patients (Safety population, N = 4089): (2.2%)
- Serious TEAE Leading to Withdrawal of Study Drug, number of patients (Safety population, N = 4089): 88
- Serious TEAE, % of patients (Safety population, N = 4089): (30.6%)
- Serious TEAE, number of patients (Safety population, N = 4089): 1252
- Subjects with at Least One TEAE, % of patients (Safety population, N = 4089): (81.8%)
- Subjects with at Least One TEAE, number of patients (Safety population, N = 4089): 3343
- TEAE Leading to Withdrawal of Study Drug, % of patients (Safety population, N = 4089): (7.9%)
- TEAE Leading to Withdrawal of Study Drug, number of patients (Safety population, N = 4089): 321
- Anemia, % of patients [1]: 4.7%
- Anemia, number of patients [1]: 191
- Angina pectoris, % of patients [1]: 4.9%
- Angina pectoris, number of patients [1]: 200
- Arthralgia, % of patients [1]: 7.7%
- Arthralgia, number of patients [1]: 313
- Atrial fibrillation, % of patients [1]: 5.3%
- Atrial fibrillation, number of patients [1]: 215
- Back pain, % of patients [1]: 8.2%
- Back pain, number of patients [1]: 335
- Bronchitis, % of patients [1]: 7.5%
- Bronchitis, number of patients [1]: 306
- Cataract, % of patients [1]: 5.7%
- Cataract, number of patients [1]: 233
- Chest pain, % of patients [1]: 6.7%
- Chest pain, number of patients [1]: 273
- Constipation, % of patients [1]: 5.4%
- Constipation, number of patients [1]: 221
- Cough, % of patients [1]: 5.9%
- Cough, number of patients [1]: 241
- Diarrhea, % of patients [1]: 9.0%
- Diarrhea, number of patients [1]: 367
- Dizziness, % of patients [1]: 5.7%
- Dizziness, number of patients [1]: 235
- Dyspnea, % of patients [1]: 6.2%
- Dyspnea, number of patients [1]: 254
- Fatigue, % of patients [1]: 5.6%
- Fatigue, number of patients [1]: 228
- Hypertension, % of patients [1]: 7.8%
- Hypertension, number of patients [1]: 320
- Influenza, % of patients [1]: 6.4%
- Influenza, number of patients [1]: 263
- Nasopharyngitis, % of patients [1]: 7.7%
- Nasopharyngitis, number of patients [1]: 314
- Osteoarthritis, % of patients [1]: 5.9%
- Osteoarthritis, number of patients [1]: 241
- Pain in extremity, % of patients [1]: 5.7%
- Pain in extremity, number of patients [1]: 235
- Peripheral edema, % of patients [1]: 6.5%
- Peripheral edema, number of patients [1]: 267
- Pneumonia, % of patients [1]: 6.4%
- Pneumonia, number of patients [1]: 263
- Upper respiratory tract infection, % of patients [1]: 7.6%
- Upper respiratory tract infection, number of patients [1]: 312
- Urinary tract infection, % of patients [1]: 6.2%
- Urinary tract infection, number of patients [1]: 253
- Gastroesophageal Reflux Disease, % of patients [2]: 3.0%
- Gastroesophageal Reflux Disease, number of patients [2]: 124
- Gastrointestinal disorders (primary system organ class), % of patients [2]: 33.0%
- Gastrointestinal disorders (primary system organ class), number of patients [2]: 1350
- Nausea, % of patients [2]: 4.6%
- Nausea, number of patients [2]: 190
- anemia, adverse event rate (in vivo): 4.7%
- atrial fibrillation or flutter requiring hospitalization (adjudicated tertiary endpoint), rate (in vivo): 3.1%
- atrial fibrillation, adverse event rate (in vivo): 5.3%
- diarrhea, adverse event rate (in vivo): 9%
- gastrointestinal adverse events, rate (in vivo): 33.0%
- gastrointestinal bleeding (serious), rate (in vivo): 1.5%
- new or unexpected important adverse effects in the safety population (in vivo): no new or unexpected important adverse effects
- overall adverse event rates compared with placebo (in vivo): similar
- peripheral edema, adverse event rate (in vivo): 6.5%
- serious central nervous system bleeding, rate (in vivo): 0.3%
- tolerability (in vivo): well tolerated
- treatment-emergent serious adverse events for bleeding, rate (in vivo): 2.7%
- rates of adverse events or serious adverse events leading to withdrawal of study drug vs placebo (in vivo, listed as AMR101): no significant differences
- Aortic Aneurysm Rupture, % of patients [3]: (0.0%)
- Aortic Aneurysm Rupture, number of patients [3]: 1
- Brain Contusion, % of patients [3]: (0.0%)
- Brain Contusion, number of patients [3]: 0
- Catheter Site Hemorrhage, % of patients [3]: (0.0%)
- Catheter Site Hemorrhage, number of patients [3]: 0
- Cerebral Hemorrhage, % of patients [3]: (0.0%)
- Cerebral Hemorrhage, number of patients [3]: 0
- Cystitis Hemorrhagic, % of patients [3]: (0.0%)
- Cystitis Hemorrhagic, number of patients [3]: 2
- Diverticulitis Intestinal Hemorrhagic, % of patients [3]: (0.0%)
- Diverticulitis Intestinal Hemorrhagic, number of patients [3]: 0
- Diverticulum Intestinal Hemorrhagic, % of patients [3]: (0.1%)
- Diverticulum Intestinal Hemorrhagic, number of patients [3]: 3
- Duodenal Ulcer Hemorrhage, % of patients [3]: (0.0%)
- Duodenal Ulcer Hemorrhage, number of patients [3]: 2
- Ecchymosis, % of patients [3]: (0.0%)
- Ecchymosis, number of patients [3]: 1
- Epistaxis, % of patients [3]: (0.2%)
- Epistaxis, number of patients [3]: 7
- Esophageal Hemorrhage, % of patients [3]: (0.0%)
- Esophageal Hemorrhage, number of patients [3]: 0
- Extravasation Blood, % of patients [3]: (0.0%)
- Extravasation Blood, number of patients [3]: 1
- Gastric Hemorrhage, % of patients [3]: (0.0%)
- Gastric Hemorrhage, number of patients [3]: 1
- Gastric Ulcer Hemorrhage, % of patients [3]: (0.1%)
- Gastric Ulcer Hemorrhage, number of patients [3]: 3
- Gastrointestinal Angiodysplasia Hemorrhagic, % of patients [3]: (0.0%)
- Gastrointestinal Angiodysplasia Hemorrhagic, number of patients [3]: 1
- Gastrointestinal Hemorrhage, % of patients [3]: (0.6%)
- Gastrointestinal Hemorrhage, number of patients [3]: 26
- Genital Hemorrhage, % of patients [3]: (0.0%)
- Genital Hemorrhage, number of patients [3]: 1
- Hemarthrosis, % of patients [3]: (0.0%)
- Hemarthrosis, number of patients [3]: 0
- Hematemesis, % of patients [3]: (0.1%)
- Hematemesis, number of patients [3]: 3
- Hematochezia, % of patients [3]: (0.0%)
- Hematochezia, number of patients [3]: 1
- Hematoma, % of patients [3]: (0.0%)
- Hematoma, number of patients [3]: 1
- Hematuria, % of patients [3]: (0.2%)
- Hematuria, number of patients [3]: 8
- Hemoptysis, % of patients [3]: (0.0%)
- Hemoptysis, number of patients [3]: 1
- Hemorrhagic Anemia, % of patients [3]: (0.1%)
- Hemorrhagic Anemia, number of patients [3]: 4
- Hemorrhagic Duodenitis, % of patients [3]: (0.0%)
- Hemorrhagic Duodenitis, number of patients [3]: 0
- Hemorrhagic Transformation Stroke, % of patients [3]: (0.0%)
- Hemorrhagic Transformation Stroke, number of patients [3]: 1
- Hemorrhoidal Hemorrhage, % of patients [3]: (0.1%)
- Hemorrhoidal Hemorrhage, number of patients [3]: 3
- Hemothorax, % of patients [3]: (0.0%)
- Hemothorax, number of patients [3]: 1
- Immune Thrombocytopenic Purpura, % of patients [3]: (0.0%)
- Immune Thrombocytopenic Purpura, number of patients [3]: 0
- Intra-Abdominal Hemorrhage, % of patients [3]: (0.0%)
- Intra-Abdominal Hemorrhage, number of patients [3]: 1
- Intracranial Hemorrhage, % of patients [3]: (0.0%)
- Intracranial Hemorrhage, number of patients [3]: 0
- Large Intestinal Hemorrhage, % of patients [3]: (0.0%)
- Large Intestinal Hemorrhage, number of patients [3]: 1
- Lower Gastrointestinal Hemorrhage, % of patients [3]: (0.1%)
- Lower Gastrointestinal Hemorrhage, number of patients [3]: 5
- Mallory-Weiss Syndrome, % of patients [3]: (0.0%)
- Mallory-Weiss Syndrome, number of patients [3]: 1
- Melaena, % of patients [3]: (0.1%)
- Melaena, number of patients [3]: 3
- Menorrhagia, % of patients [3]: (0.0%)
- Menorrhagia, number of patients [3]: 1
- Mouth Hemorrhage, % of patients [3]: (0.0%)
- Mouth Hemorrhage, number of patients [3]: 0
- Pancreatitis Hemorrhagic, % of patients [3]: (0.0%)
- Pancreatitis Hemorrhagic, number of patients [3]: 1
- Peptic Ulcer Hemorrhage, % of patients [3]: (0.0%)
- Peptic Ulcer Hemorrhage, number of patients [3]: 1
- Pericardial Hemorrhage, % of patients [3]: (0.0%)
- Pericardial Hemorrhage, number of patients [3]: 0
- Post Procedural Hematoma, % of patients [3]: (0.0%)
- Post Procedural Hematoma, number of patients [3]: 1
- Post Procedural Hematuria, % of patients [3]: (0.0%)
- Post Procedural Hematuria, number of patients [3]: 0
- Post Procedural Hemorrhage, % of patients [3]: (0.1%)
- Post Procedural Hemorrhage, number of patients [3]: 5
- Rectal Hemorrhage, % of patients [3]: (0.2%)
- Rectal Hemorrhage, number of patients [3]: 10
- Renal Hemorrhage, % of patients [3]: (0.0%)
- Renal Hemorrhage, number of patients [3]: 0
- Retinal Hemorrhage, % of patients [3]: (0.0%)
- Retinal Hemorrhage, number of patients [3]: 1
- Retroperitoneal Hematoma, % of patients [3]: (0.0%)
- Retroperitoneal Hematoma, number of patients [3]: 0
- Retroperitoneal Hemorrhage, % of patients [3]: (0.0%)
- Retroperitoneal Hemorrhage, number of patients [3]: 1
- Shock Hemorrhagic, % of patients [3]: (0.0%)
- Shock Hemorrhagic, number of patients [3]: 2
- Subarachnoid Hemorrhage, % of patients [3]: (0.0%)
- Subarachnoid Hemorrhage, number of patients [3]: 2
- Subdural Hematoma, % of patients [3]: (0.2%)
- Subdural Hematoma, number of patients [3]: 9
- Subdural Hemorrhage, % of patients [3]: (0.0%)
- Subdural Hemorrhage, number of patients [3]: 2
- Traumatic Hematoma, % of patients [3]: (0.0%)
- Traumatic Hematoma, number of patients [3]: 2
- Traumatic Intracranial Hemorrhage, % of patients [3]: (0.0%)
- Traumatic Intracranial Hemorrhage, number of patients [3]: 0
- Ulcer Hemorrhage, % of patients [3]: (0.0%)
- Ulcer Hemorrhage, number of patients [3]: 1
- Upper Gastrointestinal Hemorrhage, % of patients [3]: (0.1%)
- Upper Gastrointestinal Hemorrhage, number of patients [3]: 3
- Urinary Bladder Hemorrhage, % of patients [3]: (0.0%)
- Urinary Bladder Hemorrhage, number of patients [3]: 1
- Bleeding related disorders, % of patients [4]: (2.7%)
- Bleeding related disorders, number of patients [4]: 111
- Central nervous system bleeding, % of patients [4]: (0.3%)
- Central nervous system bleeding, number of patients [4]: 14
- Gastrointestinal bleeding, % of patients [4]: (1.5%)
- Gastrointestinal bleeding, number of patients [4]: 62
- Other bleeding, % of patients [4]: (1.0%)
- Other bleeding, number of patients [4]: 41
